Key:
[1] = Effect on tissue-toxic hypoxia (survival time after KCN i.p.), life-prolonging rate (1); format: in vivo, male mice (dd-strain); settings: Mus musculus, po, 100 mg/kg oral, 1 hour before KCN 10 mg/kg i.p.; untreated group 140 seconds; read-out: Life-prolonging rate (1): increase percent of survival time
[2] = Effect on hypotonic hypoxia (survival time in nitrogen gas containing 1.5 % oxygen), life-prolonging rate (2); format: in vivo, male mice (dd-strain); settings: Mus musculus, po, 100 mg/kg oral, 1 hour before 1.5 % oxygen in nitrogen; untreated group 8 minutes; read-out: Life-prolonging rate (2): increase percent of survival time
Method: b. Effect on hyptonic hypoxia
To male mice (dd-strain) weighting 15 to 22 g were administered orally the present compounds in the dosage of 100 mg/kg, and after one hour, the mice were taken to a closed room, air in which was substituted with nitrogen gas containing 1.5 % oxygen by ventilating the nitrogen gas for 2 minutes. As sending a mixed gas into the room, the time for death was measured. The increase percent of survival time to the average survival time (8 minutes) of the group, to which the present compounds were not administered, is shown in Table II as life-prolonging rate (2).

Compound | ILS at 100 mg/kg [1] [%] | ILS at 100 mg/kg [2] [%]
CN(C)CCCNC(=S)Nc1cccnc1 | 35 | 10
S=C(NN=Cc1ccccn1)Nc1cccnc1 | 92 | 81
O=C(O)CCCNC(=S)Nc1ccccn1 | 72 | 53
S=C(NCCSSCCNC(=S)Nc1cccnc1)Nc1cccnc1 | 30 | 5
OCCCNC(=S)Nc1cccnc1 | 115 | 100
COCCCNC(=S)Nc1cccnc1 | 35 | 25
CN(C)NC(=S)Nc1cccnc1 | 81 | 63
CCN(CC)CCNC(=S)Nc1cccnc1 | 89 | 40
S=C(NN=Cc1cccnc1)Nc1cccnc1 | 135 | 114
S=C(NNc1ccccc1)Nc1cccnc1 | 125 | 108
S=C(Nc1cccnc1)NN1CCN(Cc2ccccc2)CC1 | 124 | 80
CN(Cc1ccccc1)NC(=S)Nc1ccncc1 | 156 | 58
CN(C)CCNC(=S)Nc1cccnc1 | 61 | 46
CC(O)CNC(=S)Nc1cccnc1 (stereo not shown) | 75 | 60
O=C(O)CCCNC(=S)Nc1cccnc1 | 127 | 78
S=C(NCCSCc1ccccc1)Nc1ccccn1 | 86 | 65
OCC(CO)(CO)NC(=S)Nc1cccnc1 | 61 | 59
OCCNC(=S)Nc1ccncc1 | 242 | 158
CN(C)CCCNC(=S)Nc1ccncc1 | 37 | 21
CCN(CC)CCCNC(=S)Nc1cccnc1 | 28 | 11
CCN(CC)CCNC(=S)Nc1ccccn1 | 20 | 16
S=C(NCCSCc1ccccc1)Nc1cccnc1 | 64 | 55
CC(C)(CO)NC(=S)Nc1cccnc1 | 67 | 50

Reference: US3992391A, “1,3-Disubstituted thiourea compounds and preparation thereof” (priority 1972, dated 1976)
